Our source for the GI50 and TGI values is PubChem BioAssay (NCI).

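48-hour exposure; five concentrations; linearly interpolated endpoints. GI50 is the concentration that inhibits growth by half. TGI marks complete inhibition of growth.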

Some test systems named below: RXF 393 renal; SNB-19 CNS; SK-MEL-28 melanoma; SNB-75 CNS; UACC-257 melanoma; M14 melanoma; HT29 colon; UO-31 renal; TK-10 renal; UACC-62 melanoma.
What all share (assay): NCI tumour cell line growth inhibition, 48 h

In the case of `COc1ccc(/C=C2\CCCC3=C2NC(C)=NC3c2ccc(OC)c(OC)c2)cc1OC` (stereo not drawn), the GI50 with RXF 393 renal is 4.02 µM; with SNB-19 CNS it was 67.1 µM; with SK-MEL-28 melanoma, over 100 µM; with SNB-75 CNS it was 32 µM; in the assay with UACC-257 melanoma, 10.9 µM; in the assay on M14 melanoma, 18.6 µM. Moreover, the GI50 with HT29 colon was 21.7 µM; in the assay with UO-31 renal, 31.1 µM; in the assay with TK-10 renal, 12.3 µM; in the assay with UACC-62 melanoma it was 12.9 µM. Moreover, the TGI was 16.3 µM in the assay on RXF 393 renal; over 100 µM in the assay with SNB-19 CNS; over 100 µM in the assay on SK-MEL-28 melanoma; over 100 µM in the assay with SNB-75 CNS; over 100 µM with UACC-257 melanoma; over 100 µM in the assay on M14 melanoma. The TGI in the assay with HT29 colon was over 100 µM; in the assay with UO-31 renal, over 100 µM; in the assay on TK-10 renal, 74.7 µM; with UACC-62 melanoma it was over 100 µM.
For the compound `O=c1cccccc1NCCCCCCCCCNc1cccccc1=O`, the TGI with RXF 393 renal amounted to 79.3 µM; with SNB-19 CNS, 88.5 µM; in the assay with SNB-75 CNS it was 62.9 µM; in the assay with UACC-257 melanoma it was 7.35 µM; with M14 melanoma it was 25.7 µM; in the assay with HT29 colon, 65 µM. For the same compound, the TGI in the assay on UO-31 renal is 41.6 µM; in the assay on UACC-62 melanoma, 28.7 µM.
On to `O=C1C(=O)N(C2C3CC4CC(C3)CC2C4)C(=O)C(=O)C1c1nc2ccccc2o1` (stereo not drawn), for which the TGI in the assay with RXF 393 renal, with SNB-19 CNS, with SK-MEL-28 melanoma, in the assay with SNB-75 CNS, with UACC-257 melanoma and in the assay on M14 melanoma was over 100 µM in each case. Further, the TGI was 49.9 µM in the assay on HT29 colon, over 100 µM in the assay with UO-31 renal, over 100 µM with TK-10 renal and over 100 µM in the assay with UACC-62 melanoma.
Turning to `CCOC(=O)N1C2C=C(C)C(C3C(C)C(=O)N31)N(C(=O)c1ccccc1)O2` (stereo not drawn), the TGI with RXF 393 renal, with SNB-19 CNS, in the assay with SK-MEL-28 melanoma, in the assay on SNB-75 CNS, with UACC-257 melanoma and in the assay on M14 melanoma was over 100 µM in each case. Moreover, the TGI in the assay on HT29 colon, in the assay with UO-31 renal, in the assay on TK-10 renal and in the assay with UACC-62 melanoma was over 100 µM throughout.
For `COc1ccc(COCC(Cn2ccnc2)OCc2ccc(C(=O)O)cc2)cc1` (stereo not drawn), the TGI with RXF 393 renal, in the assay with SK-MEL-28 melanoma, in the assay with SNB-75 CNS, in the assay on UACC-257 melanoma, with M14 melanoma and with HT29 colon was over 100 µM each time. Moreover, the TGI in the assay with UO-31 renal, with TK-10 renal and with UACC-62 melanoma was over 100 µM throughout.
Regarding `Cc1ccc2c(c1)ncn2-c1ncnc2c1CC(C)c1ccccc1N2C` (stereo not drawn), the GI50 in the assay with RXF 393 renal was 0.0577 µM; with SNB-19 CNS, 0.17 µM; in the assay on SK-MEL-28 melanoma, 1.84 µM; in the assay with SNB-75 CNS, 0.0892 µM; with M14 melanoma it was 0.0587 µM; with HT29 colon, 0.0922 µM. The GI50 with UO-31 renal is 0.317 µM; in the assay on TK-10 renal, 11.6 µM. The TGI in the assay on RXF 393 renal came out at 16.4 µM; in the assay with SNB-19 CNS, 20.7 µM; in the assay with SK-MEL-28 melanoma it was 15.6 µM; in the assay with SNB-75 CNS, 18.1 µM; in the assay with M14 melanoma, 14.1 µM; with HT29 colon, 14.5 µM. Also, the TGI with UO-31 renal is 7.11 µM; in the assay on TK-10 renal, 24.3 µM.
For `O=C(O)c1c[nH]cc1C(=O)O`, the TGI with RXF 393 renal, in the assay with SNB-19 CNS, with SNB-75 CNS, in the assay with UACC-257 melanoma, in the assay on M14 melanoma and in the assay on HT29 colon was over 100 µM each time. For the same compound, the TGI in the assay on UO-31 renal, in the assay with TK-10 renal and with UACC-62 melanoma was over 100 µM throughout.
Turning to `CCOC(=O)N1CCN(S(=O)(=O)c2oc(-c3ccc(Cl)cc3)nc2C#N)CC1`, the GI50 in the assay on RXF 393 renal is 1.82 µM; with SNB-19 CNS it was 14.6 µM; with SK-MEL-28 melanoma, 2.12 µM; in the assay with SNB-75 CNS, 11.4 µM; in the assay on UACC-257 melanoma it was 2.37 µM; in the assay on M14 melanoma it was 1.59 µM. Further, the figures for the GI50 in the assay with UO-31 renal, with TK-10 renal and in the assay on UACC-62 melanoma were 1.54 µM, 1.8 µM and 3.07 µM, respectively. In addition, the TGI was 3.25 µM in the assay with RXF 393 renal; 50.7 µM in the assay on SNB-19 CNS; 4.23 µM in the assay on SK-MEL-28 melanoma; over 100 µM with SNB-75 CNS; 7.71 µM in the assay with UACC-257 melanoma; 3.67 µM in the assay with M14 melanoma. Also, the values for the TGI in the assay with UO-31 renal, in the assay on TK-10 renal and with UACC-62 melanoma were 2.88 µM, 3.29 µM and 12.7 µM, respectively.
Consider `O=C1CC2C(=O)N(Cc3ccccc3)C1C(S(=O)(=O)c1ccccc1)C2S(=O)(=O)c1ccccc1` (stereo not drawn), for which the TGI in the assay with RXF 393 renal is 3.5 µM; in the assay with SK-MEL-28 melanoma, 3.72 µM; with SNB-75 CNS, 21.2 µM; with UACC-257 melanoma, 3.25 µM; with M14 melanoma, 4.22 µM; in the assay on HT29 colon, 5.1 µM. In addition, the values for the TGI with UO-31 renal, in the assay with TK-10 renal and in the assay on UACC-62 melanoma were 22.6 µM, 3.95 µM and 5.22 µM, respectively.
As to `CCOC(=O)c1cnn(-c2ccnc3c(C(F)(F)F)cccc23)c1N`, the GI50 is over 100 µM with RXF 393 renal; over 100 µM in the assay with SNB-19 CNS; over 100 µM with SK-MEL-28 melanoma; 51.7 µM in the assay on SNB-75 CNS; over 100 µM in the assay with UACC-257 melanoma; over 100 µM with HT29 colon. Further, the GI50 with UO-31 renal, in the assay on TK-10 renal and in the assay on UACC-62 melanoma was over 100 µM each time. Moreover, the TGI with RXF 393 renal, in the assay on SNB-19 CNS, in the assay on SK-MEL-28 melanoma, in the assay on SNB-75 CNS, in the assay with UACC-257 melanoma and in the assay on HT29 colon was over 100 µM each time. Moreover, the TGI in the assay with UO-31 renal, in the assay with TK-10 renal and in the assay on UACC-62 melanoma was over 100 µM in each case.
For `COc1cnc2c(c1)C(=O)c1c-2n(CCCN2CCCC2)c(=O)c2cc(Cl)ccc12`, the GI50 in the assay with RXF 393 renal is 0.705 µM; in the assay on SNB-19 CNS, 1.03 µM; in the assay with SK-MEL-28 melanoma, 8.34 µM; in the assay with SNB-75 CNS, 0.347 µM; in the assay with UACC-257 melanoma it was 7.85 µM; in the assay with M14 melanoma it was 0.872 µM. In addition, the results for the GI50 with HT29 colon and in the assay on UO-31 renal were 0.161 µM and 0.599 µM, respectively. The TGI with RXF 393 renal was 5.82 µM; in the assay with SNB-19 CNS, 11.7 µM; in the assay on SK-MEL-28 melanoma it was 16.8 µM; in the assay on SNB-75 CNS it was 7.79 µM; in the assay with UACC-257 melanoma, 21.6 µM; with M14 melanoma it was 11.8 µM. Besides, the TGI with HT29 colon was determined as 7.94 µM; with UO-31 renal, 9.02 µM.
